Experimental data reported in the NIST ThermoML archive (doi:10.1016/j.tca.2012.08.011).

Experiment: xn = mol fraction of the nth substance listed
Settings: 101 kPa, Liquid; for speed of sound: Linear variable-path acoustic interferometer; for mass density: Vibrating tube method

NC1CCCCC1 [cyclohexylamine] + c1ccccc1
Settings | mass density [kg/m3] | speed of sound [m/s]
293.15 K, x1 = 0.0621 | 877.45 | 1328
293.15 K, x1 = 0.0938 | 876.73 | 1331
293.15 K, x1 = 0.1434 | 875.68 | 1335.6
293.15 K, x1 = 0.1546 | 875.47 | 1336.6
293.15 K, x1 = 0.2031 | 874.52 | 1341.3
293.15 K, x1 = 0.2475 | 873.73 | 1345.8
293.15 K, x1 = 0.2972 | 872.9 | 1350.9
293.15 K, x1 = 0.3472 | 872.15 | 1356.1
293.15 K, x1 = 0.3945 | 871.5 | 1361.2
293.15 K, x1 = 0.4786 | 870.45 | 1370.2
293.15 K, x1 = 0.4948 | 870.28 | 1372.1
293.15 K, x1 = 0.5013 | 870.2 | 1372.6
293.15 K, x1 = 0.5389 | 869.83 | 1376.9
293.15 K, x1 = 0.5396 | 869.83 | 1377
293.15 K, x1 = 0.5419 | 869.8 | 1377.1
293.15 K, x1 = 0.5927 | 869.3 | 1382.8
293.15 K, x1 = 0.6428 | 868.89 | 1388.4
293.15 K, x1 = 0.6927 | 868.55 | 1394.2
293.15 K, x1 = 0.7465 | 868.2 | 1400.3
293.15 K, x1 = 0.7962 | 867.93 | 1405.9
293.15 K, x1 = 0.8474 | 867.74 | 1411.9
293.15 K, x1 = 0.897 | 867.61 | 1418
293.15 K, x1 = 0.9485 | 867.49 | 1424.2
293.15 K, x1 = 1 | 867.39 | 1430.5
298.15 K, x1 = 0.0621 | 872.22 | 1304.7
298.15 K, x1 = 0.0938 | 871.52 | 1307.7
298.15 K, x1 = 0.1434 | 870.56 | 1312.3
298.15 K, x1 = 0.1546 | 870.34 | 1313.4
298.15 K, x1 = 0.2031 | 869.46 | 1318.1
298.15 K, x1 = 0.2475 | 868.71 | 1322.7
298.15 K, x1 = 0.2972 | 867.95 | 1327.9
298.15 K, x1 = 0.3472 | 867.25 | 1333.3
298.15 K, x1 = 0.3945 | 866.64 | 1338.4
298.15 K, x1 = 0.4786 | 865.69 | 1347.5
298.15 K, x1 = 0.4948 | 865.5 | 1349.2
298.15 K, x1 = 0.5013 | 865.45 | 1349.9
298.15 K, x1 = 0.5389 | 865.08 | 1354.3
298.15 K, x1 = 0.5396 | 865.08 | 1354.4
298.15 K, x1 = 0.5419 | 865.06 | 1354.6
298.15 K, x1 = 0.5927 | 864.62 | 1360.2
298.15 K, x1 = 0.6428 | 864.23 | 1365.8
298.15 K, x1 = 0.6927 | 863.88 | 1371.8
298.15 K, x1 = 0.7465 | 863.59 | 1378
298.15 K, x1 = 0.7962 | 863.33 | 1383.7
298.15 K, x1 = 0.8474 | 863.17 | 1389.9
298.15 K, x1 = 0.897 | 863.04 | 1396
298.15 K, x1 = 0.9485 | 862.94 | 1402.4
298.15 K, x1 = 1 | 862.85 | 1408.8
303.15 K, x1 = 0.0621 | 866.94 | 1281.5
303.15 K, x1 = 0.0938 | 866.31 | 1284.3
303.15 K, x1 = 0.1434 | 865.4 | 1289.2
303.15 K, x1 = 0.1546 | 865.2 | 1290.3
303.15 K, x1 = 0.2031 | 864.38 | 1295.1
303.15 K, x1 = 0.2475 | 863.69 | 1299.7
303.15 K, x1 = 0.2972 | 862.98 | 1305.2
303.15 K, x1 = 0.3472 | 862.36 | 1310.6
303.15 K, x1 = 0.3945 | 861.76 | 1315.6
303.15 K, x1 = 0.4786 | 860.88 | 1325
303.15 K, x1 = 0.4948 | 860.72 | 1326.9
303.15 K, x1 = 0.5013 | 860.67 | 1327.4
303.15 K, x1 = 0.5389 | 860.32 | 1331.8
303.15 K, x1 = 0.5396 | 860.32 | 1331.9
303.15 K, x1 = 0.5419 | 860.3 | 1332.1
303.15 K, x1 = 0.5927 | 859.9 | 1337.9
303.15 K, x1 = 0.6428 | 859.54 | 1343.5
303.15 K, x1 = 0.6927 | 859.24 | 1349.5
303.15 K, x1 = 0.7465 | 858.96 | 1355.6
303.15 K, x1 = 0.7962 | 858.72 | 1361.5
303.15 K, x1 = 0.8474 | 858.58 | 1367.9
303.15 K, x1 = 0.897 | 858.47 | 1374.1
303.15 K, x1 = 0.9485 | 858.38 | 1380.5
303.15 K, x1 = 1 | 858.31 | 1387.3
308.15 K, x1 = 0.0621 | 861.67 | 1258.4
308.15 K, x1 = 0.0938 | 861.08 | 1261.5
308.15 K, x1 = 0.1434 | 860.23 | 1266.2
308.15 K, x1 = 0.1546 | 860.04 | 1267.5
308.15 K, x1 = 0.2031 | 859.28 | 1272.5
308.15 K, x1 = 0.2475 | 858.65 | 1277.2
308.15 K, x1 = 0.2972 | 857.99 | 1282.6
308.15 K, x1 = 0.3472 | 857.38 | 1288.1
308.15 K, x1 = 0.3945 | 856.87 | 1293.2
308.15 K, x1 = 0.4786 | 856.07 | 1302.7
308.15 K, x1 = 0.4948 | 855.9 | 1304.6
308.15 K, x1 = 0.5013 | 855.87 | 1305.1
308.15 K, x1 = 0.5389 | 855.55 | 1309.4
308.15 K, x1 = 0.5396 | 855.55 | 1309.5
308.15 K, x1 = 0.5419 | 855.53 | 1309.8
308.15 K, x1 = 0.5927 | 855.17 | 1315.5
308.15 K, x1 = 0.6428 | 854.84 | 1321.3
308.15 K, x1 = 0.6927 | 854.58 | 1327.3
308.15 K, x1 = 0.7465 | 854.32 | 1333.5
308.15 K, x1 = 0.7962 | 854.16 | 1339.7
308.15 K, x1 = 0.8474 | 853.99 | 1345.9
308.15 K, x1 = 0.897 | 853.9 | 1352.2
308.15 K, x1 = 0.9485 | 853.83 | 1359
308.15 K, x1 = 1 | 853.76 | 1366
313.15 K, x1 = 0.0621 | 856.39 | 1235.4
313.15 K, x1 = 0.0938 | 855.84 | 1238.6
313.15 K, x1 = 0.1434 | 855.11 | 1243.5
313.15 K, x1 = 0.1546 | 854.94 | 1244.6
313.15 K, x1 = 0.2031 | 854.22 | 1249.7
313.15 K, x1 = 0.2475 | 853.65 | 1254.5
313.15 K, x1 = 0.2972 | 853.04 | 1260
313.15 K, x1 = 0.3472 | 852.51 | 1265.6
313.15 K, x1 = 0.3945 | 852.03 | 1270.9
313.15 K, x1 = 0.4786 | 851.24 | 1280.4
313.15 K, x1 = 0.4948 | 851.15 | 1282.3
313.15 K, x1 = 0.5013 | 851.07 | 1283
313.15 K, x1 = 0.5389 | 850.78 | 1287.3
313.15 K, x1 = 0.5396 | 850.78 | 1287.4
313.15 K, x1 = 0.5419 | 850.75 | 1287.7
313.15 K, x1 = 0.5927 | 850.43 | 1293.5
313.15 K, x1 = 0.6428 | 850.14 | 1299.4
313.15 K, x1 = 0.6927 | 849.92 | 1305.2
313.15 K, x1 = 0.7465 | 849.68 | 1311.7
313.15 K, x1 = 0.7962 | 849.53 | 1317.8
313.15 K, x1 = 0.8474 | 849.39 | 1324.1
313.15 K, x1 = 0.897 | 849.32 | 1330.5
313.15 K, x1 = 0.9485 | 849.27 | 1337.5
313.15 K, x1 = 1 | 849.23 | 1344.5
318.15 K, x1 = 0.0621 | 851.07 | 1212.6
318.15 K, x1 = 0.0938 | 850.53 | 1215.7
318.15 K, x1 = 0.1434 | 849.85 | 1220.9
318.15 K, x1 = 0.1546 | 849.69 | 1221.9
318.15 K, x1 = 0.2031 | 849.06 | 1227.1
318.15 K, x1 = 0.2475 | 848.53 | 1232
318.15 K, x1 = 0.2972 | 847.99 | 1237.5
318.15 K, x1 = 0.3472 | 847.44 | 1243.2
318.15 K, x1 = 0.3945 | 847.06 | 1248.6
318.15 K, x1 = 0.4786 | 846.39 | 1258.2
318.15 K, x1 = 0.4948 | 846.28 | 1260
318.15 K, x1 = 0.5013 | 846.24 | 1260.8
318.15 K, x1 = 0.5389 | 845.99 | 1265.3
318.15 K, x1 = 0.5396 | 845.99 | 1265.4
318.15 K, x1 = 0.5419 | 845.99 | 1265.7
318.15 K, x1 = 0.5927 | 845.7 | 1271.5
318.15 K, x1 = 0.6428 | 845.45 | 1277.4
318.15 K, x1 = 0.6927 | 845.29 | 1283.3
318.15 K, x1 = 0.7465 | 845.06 | 1289.9
318.15 K, x1 = 0.7962 | 844.93 | 1295.8
318.15 K, x1 = 0.8474 | 844.84 | 1302.4
318.15 K, x1 = 0.897 | 844.74 | 1308.8
318.15 K, x1 = 0.9485 | 844.71 | 1315.9
318.15 K, x1 = 1 | 844.68 | 1323.1
323.15 K, x1 = 0.0621 | 845.7 | 1190.1
323.15 K, x1 = 0.0938 | 845.26 | 1193.2
323.15 K, x1 = 0.1434 | 844.64 | 1198.3
323.15 K, x1 = 0.1546 | 844.5 | 1199.4
323.15 K, x1 = 0.2031 | 843.92 | 1204.6
323.15 K, x1 = 0.2475 | 843.45 | 1209.5
323.15 K, x1 = 0.2972 | 842.96 | 1215.1
323.15 K, x1 = 0.3472 | 842.52 | 1220.9
323.15 K, x1 = 0.3945 | 842.14 | 1226.2
323.15 K, x1 = 0.4786 | 841.55 | 1236.1
323.15 K, x1 = 0.4948 | 841.45 | 1237.9
323.15 K, x1 = 0.5013 | 841.42 | 1238.7
323.15 K, x1 = 0.5389 | 841.19 | 1243.1
323.15 K, x1 = 0.5396 | 841.19 | 1243.2
323.15 K, x1 = 0.5419 | 841.19 | 1243.5
323.15 K, x1 = 0.5927 | 840.94 | 1249.5
323.15 K, x1 = 0.6428 | 840.73 | 1255.5
323.15 K, x1 = 0.6927 | 840.66 | 1261.5
323.15 K, x1 = 0.7465 | 840.41 | 1268.1
323.15 K, x1 = 0.7962 | 840.3 | 1274.1
323.15 K, x1 = 0.8474 | 840.24 | 1280.6
323.15 K, x1 = 0.897 | 840.16 | 1287.1
323.15 K, x1 = 0.9485 | 840.16 | 1294.4
323.15 K, x1 = 1 | 840.14 | 1301.8
